Consider one compound from publication doi:10.1101/2020.07.10.197525v1 (biorxiv, 2020).

In experiment [1] the target is GABAA α3β2γ2 (Rattus norvegicus, UniProt P18508+P20236+P63138). Kind of experiment: voltage clamp of Xenopus oocytes, potentiation of GABA-induced currents. Format: cell-based.
The target of experiment [2] is GABAA α3β3γ2 (Rattus norvegicus, UniProt P18508+P20236+P63079). The description is as above. Format: cell-based.
Sequence of GABAA α3β3γ2 (P20236 29-493): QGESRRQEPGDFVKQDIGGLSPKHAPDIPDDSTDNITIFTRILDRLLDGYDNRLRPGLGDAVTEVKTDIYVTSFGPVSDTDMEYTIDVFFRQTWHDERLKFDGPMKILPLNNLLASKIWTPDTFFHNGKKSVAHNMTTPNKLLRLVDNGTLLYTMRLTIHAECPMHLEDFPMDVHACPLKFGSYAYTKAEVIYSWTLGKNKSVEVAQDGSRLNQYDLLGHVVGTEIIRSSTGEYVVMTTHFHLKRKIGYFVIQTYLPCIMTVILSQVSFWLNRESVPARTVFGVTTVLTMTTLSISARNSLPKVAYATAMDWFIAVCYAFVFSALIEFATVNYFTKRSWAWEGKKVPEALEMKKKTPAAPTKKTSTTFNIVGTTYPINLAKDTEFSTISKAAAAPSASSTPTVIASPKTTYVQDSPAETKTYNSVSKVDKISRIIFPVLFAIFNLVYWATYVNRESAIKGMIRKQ
Sequence of GABAA α3β3γ2 (P63079 26-473): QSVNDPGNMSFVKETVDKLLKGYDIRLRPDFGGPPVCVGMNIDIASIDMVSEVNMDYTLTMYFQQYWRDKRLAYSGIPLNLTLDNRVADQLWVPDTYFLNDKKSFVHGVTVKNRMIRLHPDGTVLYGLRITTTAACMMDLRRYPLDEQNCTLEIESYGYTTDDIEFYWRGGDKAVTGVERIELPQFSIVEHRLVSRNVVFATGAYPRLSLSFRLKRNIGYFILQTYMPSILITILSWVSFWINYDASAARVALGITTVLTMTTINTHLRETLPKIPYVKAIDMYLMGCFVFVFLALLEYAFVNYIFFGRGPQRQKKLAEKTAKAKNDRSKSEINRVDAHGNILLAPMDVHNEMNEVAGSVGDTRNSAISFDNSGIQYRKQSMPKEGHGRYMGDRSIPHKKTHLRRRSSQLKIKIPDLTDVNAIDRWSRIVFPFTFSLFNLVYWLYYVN
Sequence of GABAA α3β3γ2 (P18508 39-466): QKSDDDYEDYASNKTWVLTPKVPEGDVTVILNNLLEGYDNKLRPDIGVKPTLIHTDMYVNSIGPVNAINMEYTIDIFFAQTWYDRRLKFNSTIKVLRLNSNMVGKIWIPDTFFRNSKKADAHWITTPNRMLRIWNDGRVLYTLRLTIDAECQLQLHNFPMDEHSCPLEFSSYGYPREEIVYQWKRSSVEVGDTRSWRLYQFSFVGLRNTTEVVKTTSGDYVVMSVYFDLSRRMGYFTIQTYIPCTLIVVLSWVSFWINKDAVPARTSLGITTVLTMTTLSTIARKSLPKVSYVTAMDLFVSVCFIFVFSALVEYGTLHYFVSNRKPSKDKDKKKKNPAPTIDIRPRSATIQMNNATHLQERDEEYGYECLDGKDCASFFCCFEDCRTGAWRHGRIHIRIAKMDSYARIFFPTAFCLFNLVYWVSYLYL

Sequence of GABAA α3β2γ2 (P20236 29-493): as the sequence (P20236 29-493) above
Sequence of GABAA α3β2γ2 (P63138 26-474): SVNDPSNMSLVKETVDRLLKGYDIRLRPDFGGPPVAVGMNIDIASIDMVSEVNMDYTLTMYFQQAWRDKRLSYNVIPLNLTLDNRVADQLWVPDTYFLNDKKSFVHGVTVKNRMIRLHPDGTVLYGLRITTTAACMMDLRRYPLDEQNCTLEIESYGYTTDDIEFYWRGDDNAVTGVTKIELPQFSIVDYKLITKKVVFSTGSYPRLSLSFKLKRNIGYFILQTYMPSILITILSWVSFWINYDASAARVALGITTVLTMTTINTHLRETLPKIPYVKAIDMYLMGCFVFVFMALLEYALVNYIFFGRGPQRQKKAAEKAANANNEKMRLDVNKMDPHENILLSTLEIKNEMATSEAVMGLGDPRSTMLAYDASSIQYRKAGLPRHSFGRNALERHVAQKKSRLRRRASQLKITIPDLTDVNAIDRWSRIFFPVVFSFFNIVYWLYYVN
Sequence of GABAA α3β2γ2 (P18508 39-466): as the sequence (P18508 39-466) above

`CCOC(=O)c1cc(NC(=O)N(c2ccccc2)c2ccccc2)c2c(Cl)cc(Cl)cc2n1` [DCUK-OEt, 5,7-dichloro-4-([diphenylcarbamoyl]amino) quinoline-2-ethyl carboxylate]: the values for the EC50 in experiment [1] and in experiment [2] were 380 nM and 130 nM, respectively.
